Measured values as given in patent US6593373B2, “Pharmaceutical compositions of O-desmethyl-N-mono-desmethyl-tramadol” (Gruenenthal GmbH, priority 2000, dated 2003).
Read-outs that look alike come from different tables or passages of the source.

How the values were obtained:
mice tail-flick = test: Tail-flick test; details: for Tail-Flick, mouse ED50 i.c.v. / Tail-Flick, mouse ED50 i.v. / Analgesia in tail-flick test, in words: mouse
Experimental: Analgesia was tested in vivo in the mice tail-flick test. M5 was first intravenously administered and then directly into a brain ventricle.

[1] = system: mice phenylquinone writhing; test: Phenylquinone writhing test; type: in vivo
Experimental: Analgesia was tested in vivo in the mice phenylquinone writhing test. M5 was intravenously administered.

[2] = system: neuronal uptake of Serotonin (5-HT); type: biochemical; details: rat brain
Excerpt: The inhibition of neuronal uptake of Serotonin (5-HT) was investigated in in vitro rat brain binding experiments.

[3] = system: neuronal uptake of norepinephrine (NE); test: Noradrenaline uptake inhibition, in vitro rat brain; type: biochemical; details: for IC50: read-out: Noradrenalin uptake IC50
Excerpt: The inhibition of neuronal uptake of monoamines (norepinephrine; NE) was investigated in in vitro rat brain binding experiments.

μ-opioid receptor = target: T1, μ-opioid receptor (Rattus norvegicus, UniProt P33535); test: μ-opioid (Naloxon) binding, in vitro rat brain
T1 construct: from tissue; host or cells: rat brain
Excerpt: The μ-opioid receptor binding was investigated in in vitro rat brain binding experiments using naloxone.

[4] = rat brain, naloxone, read-out: Naloxone binding IC50

T1 sequence (P33535 whole entry): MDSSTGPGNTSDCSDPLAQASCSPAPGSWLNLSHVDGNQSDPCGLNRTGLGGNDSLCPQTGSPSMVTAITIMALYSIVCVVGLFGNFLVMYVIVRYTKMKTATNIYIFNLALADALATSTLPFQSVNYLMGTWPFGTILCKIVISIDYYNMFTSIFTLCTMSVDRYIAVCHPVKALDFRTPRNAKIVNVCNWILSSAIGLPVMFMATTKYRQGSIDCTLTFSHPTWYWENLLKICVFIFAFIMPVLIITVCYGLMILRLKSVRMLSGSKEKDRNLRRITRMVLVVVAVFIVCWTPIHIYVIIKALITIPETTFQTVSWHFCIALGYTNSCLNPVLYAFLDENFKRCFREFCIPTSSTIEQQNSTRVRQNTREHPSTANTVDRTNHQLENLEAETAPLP

Row | SMILES | ED50 (mice tail-flick; Mus musculus, iv, read-out: Tail-Flick, mouse ED50 i.v.) [mg/kg] | Tail-Flick, mouse ED50 i.c.v. (mice tail-flick) [μg/animal] | Writhing, mouse ED50 i.c.v. [1] [μg/animal] | ED50 ([1]; iv, mouse) [mg/kg] | IC50 [2] [µM] | IC50 [3] [µM] | Tail-Flick, mouse ED50 i.v. (mice tail-flick) | Writhing, mouse ED50 i.v. [1] | IC50 (μ-opioid receptor; [4]) [µM] | IC50 (μ-opioid receptor) [µM] | μ-opioid receptor affinity (naloxone binding), in words (μ-opioid receptor; rat brain) | Inhibition of serotonin uptake, in words [2] | Inhibition of norepinephrine uptake, in words [3] | Penetration of the blood brain barrier, in words (mice tail-flick; concluded from i.v. versus i.c.v. analgesia) | Analgesia in tail-flick test, in words (mice tail-flick; direct administration into a brain ventricle) | Analgesia in tail-flick test, in words (mice tail-flick; intravenously administered) | Analgesia in writhing test, in words ([1]; mouse, intravenous administration)
1 | COc1cccc([C@@]2(O)CCCC[C@@H]2CN(C)C)c1 (racemic) [Tramadol, (1RS, 2RS)-2[(dimethylamino)methyl]-1-(3-methoxyphenyl)-cyclohexanol] | 13.6 | 98.0 | 67.3 | 6.93 |  |  |  |  |  |  |  |  |  |  |  |  | 
2 | CN(C)C[C@H]1CCCC[C@]1(O)c1cccc(O)c1 [M1] |  | 2.1 | 0.58 |  | 24.2 | 41.4 | 1.90 mg/kg | 0.49 mg/kg |  |  |  |  |  |  |  |  | 
3 | CNCC1CCCCC1(O)c1cccc(OC)c1 (stereo not drawn) [M2] |  |  |  |  | 10.4 | 4.27 | no effect | no effect | 49.1 |  |  |  |  |  |  |  | 
4 | COc1cccc([C@@]2(O)CCCC[C@@H]2CN)c1 [M3] |  |  |  |  | 48.9 | 47.7 | no effect | no effect | 204 |  |  |  |  |  |  |  | 
5 | NC[C@H]1CCCC[C@]1(O)c1cccc(O)c1 [M4] |  |  |  |  | 375 | 104 | no effect | no effect | 23.9 |  |  |  |  |  |  |  | 
6 | CNCC1CCCCC1(O)c1cccc(O)c1 (stereo not drawn) [M5, O-desmethyl-N-mono-desmethyl-tramadol] |  | 32.4 | 4.99 |  | 120 | 13.3 | no effect | no effect |  | 0.31 | strong enough to induce in vivo analgesia | no pronounced effect | no pronounced effect | poor penetration of the blood brain barrier | a pronounced effect was seen | no pronounced effect | no pronounced effect
